# Laboratory results from ChEMBL document CHEMBL1201862, “PubChem BioAssay data set” (2004).
# Active and inactive are the calls of the source.
# Tests used:
# [1] = microbe, parasite or virus in culture; format: functional; conditions: Mycobacterium tuberculosis
# [2] = A High Throughput Confirmatory Assay used to Identify Novel Compounds that Inhibit Mycobacterium Tuberculosis in the absence of Glycerol.; format: functional
# [3] = biological target: T1, Luciferin 4-monooxygenase (Photinus pyralis, UniProt P08659); assay: Counter Screen for Luciferase-based Assay Positives. [Related pubchem assays: 620, 618, 411 ]
# [4] = Luminescence Cell-Based Dose Confirmation HTS to Identify Inhibitors of Platelet Dense Granule Release. [Related pubchem assays: 1663 (Primary HTS), 1678 (Summary of Project)]; format: functional
# Protein skinhead-1 = biological target: T2, Protein skinhead-1 (Caenorhabditis elegans, UniProt P34707); format: functional
# T2 sequence (P34707 whole entry): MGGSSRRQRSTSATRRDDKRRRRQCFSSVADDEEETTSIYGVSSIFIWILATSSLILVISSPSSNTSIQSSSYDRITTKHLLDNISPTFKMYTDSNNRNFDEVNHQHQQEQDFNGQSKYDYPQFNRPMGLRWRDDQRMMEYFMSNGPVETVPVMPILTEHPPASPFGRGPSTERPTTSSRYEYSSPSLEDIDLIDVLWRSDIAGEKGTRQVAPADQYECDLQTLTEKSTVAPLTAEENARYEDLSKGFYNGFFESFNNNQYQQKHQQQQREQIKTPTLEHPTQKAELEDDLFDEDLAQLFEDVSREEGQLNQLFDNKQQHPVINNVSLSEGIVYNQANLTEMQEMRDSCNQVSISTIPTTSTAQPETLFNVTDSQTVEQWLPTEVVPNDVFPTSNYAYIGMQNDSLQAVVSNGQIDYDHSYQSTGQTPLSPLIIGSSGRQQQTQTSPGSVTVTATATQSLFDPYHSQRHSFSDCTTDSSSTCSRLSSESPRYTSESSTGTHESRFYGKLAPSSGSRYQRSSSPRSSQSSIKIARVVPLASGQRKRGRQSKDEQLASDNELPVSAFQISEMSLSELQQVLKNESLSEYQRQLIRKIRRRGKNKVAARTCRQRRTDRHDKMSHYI
# [5] = biological target: T1, Luciferin 4-monooxygenase; assay: inhibition of purified Photinus pyralis luciferase – biochemical, luminescence, dose response (AID 1891)
# HT-1080 = assay: HT1080 cell viability loss – fluorescence readout (AID 620); format: functional, cell-based; conditions: Homo sapiens
# [6] = biological target: Aryl hydrocarbon receptor (Homo sapiens, UniProt P35869); assay: Luminescence-based cell-based high throughput dose response assay for activators of the Aryl Hydrocarbon Receptor (AHR). [Related pubchem assays: 2796 (Primary screen (AHR activators in singlicate)), 2845 (Confirmation screen (AHR activators in triplicate)), 434939 (Counterscreen (PXR activators in triplicate)), 2804 (Summary (AHR activators))]; format: ADME
# [7] = biological target: T3, Mannose-6-phosphate isomerase (Homo sapiens, UniProt P34949); assay: MPI enzyme activity inhibition – biochemical, fluorescence intensity, coupled assay, primary screen (AID 1209)
# T3 sequence (P34949 whole entry): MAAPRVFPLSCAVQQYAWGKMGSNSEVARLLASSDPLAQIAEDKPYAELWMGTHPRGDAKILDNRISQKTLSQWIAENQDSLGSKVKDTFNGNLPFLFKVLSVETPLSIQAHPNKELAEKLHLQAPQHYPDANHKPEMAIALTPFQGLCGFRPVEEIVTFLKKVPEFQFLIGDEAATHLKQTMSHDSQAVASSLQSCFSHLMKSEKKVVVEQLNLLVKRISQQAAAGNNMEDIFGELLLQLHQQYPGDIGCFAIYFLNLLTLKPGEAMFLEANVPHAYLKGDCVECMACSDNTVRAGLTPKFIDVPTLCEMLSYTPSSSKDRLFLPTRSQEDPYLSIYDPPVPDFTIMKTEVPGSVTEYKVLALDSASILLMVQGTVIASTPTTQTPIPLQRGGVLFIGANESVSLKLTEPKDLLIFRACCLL
# Estrogen receptor beta = Estrogen receptor beta (Homo sapiens, UniProt Q92731); assay: blockers of SRC-3 recruitment to ERβ – biochemical, ELISA, streptavidin-HRP readout, orthogonal assay, confirmation (AID 1060)
# H4 = assay: Luminescence Cell-Based Dose Response HTS to Identify Activators of 5'UTR Stem-Loop Driven Prion Protein mRNA Translation in H4 Neuroglioblastoma Cells. [Related pubchem assays: 1829 (Project Summary), 1814 (Primary HTS)]; format: functional; conditions: Homo sapiens
# [8] = Luminescence Cell-Based Dose Response to Identify Activators of 5'UTR Stem-Loop Driven Prion Protein mRNA Translation in H4-C Neuroglioblastoma Cells. [Related pubchem assays: 1829 (Project Summary), 1814 (Primary HTS)]; format: functional
# [9] = Luminescence Cell-Based Dose Confirmation to Identify Activators of 5'UTR Stem-Loop Driven Alpha-Synuclein mRNA Translation in H4 Neuroglioblastoma Cells. [Related pubchem assays: 1829 (Project Summary), 1814 (Primary HTS)]; format: functional
# [10] = Luminescence Cell-Based Dose Response to Identify Activators of Luciferase Translation or Activity in H4-C Neuroglioblastoma Cells. [Related pubchem assays: 1829 (Project Summary), 1814 (Primary HTS)]; format: functional
# [11] = A cytotoxicity screen of small molecule inhibitors of the PhoP region in Salmonella typhi identified in the primary screen. [Related pubchem assays: 1850, 1864, 1985 ]; format: functional
# [12] = biological target: E3 ubiquitin-protein ligase Mdm2 (Homo sapiens, UniProt Q00987); assay: MDM2-luc reporter signal enhancers, multi-concentration potency testing, MDM2 ubiquitin-protein ligase inhibitor program, whole-cell format, luminescence detection, 384-well microplate (AID 1394); format: functional;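 note: MDM2 E3 inhibitors raise luminescence so EC50 is for signal enhancement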
# cells [13] = format: functional
# [14] = biological target: Lytic switch protein BZLF1 (Epstein-Barr virus (strain B95-8) (HHV-4) (Human herpesvirus 4), UniProt P03206); assay: inhibition of BZLF1 ZTA DNA binding – biochemical, fluorescence polarization, Epstein-Barr virus, 1536-well, counter-screen for EBNA-1 inhibitor project, dose response (AID 2377); parameters: species or system human gammaherpesvirus 4;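 note: fluorescence polarization of Cy5-labelled ZRE DNA probe bound by purified Zta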
# [15] = biological target: Epstein-Barr nuclear antigen 1 (Epstein-Barr virus (strain B95-8) (HHV-4) (Human herpesvirus 4), UniProt P03211); assay: inhibition of EBV nuclear antigen 1 DNA binding – biochemical, fluorescence polarization, 1536-well, dose response (AID 2381); parameters: species or system human gammaherpesvirus 4;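 note: fluorescence polarization of a Cy5 DNA probe bound by EBNA-1 protein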
# [16] = Luminescence Cell-Based Dose Response HTS to Identify Activators of Luciferase Translation or Activity in H4 […] Cells. [Related pubchem assays: 1829 (Project Summary), 1814 (Primary HTS)]; format: functional
# [17] = Luminescence Cell-Based Dose Confirmation HTS to Identify Activators of 5'UTR Stem-Loop Driven Alpha-Synuclein mRNA Translation in H4 Neuroglioblastoma Cells. [Related pubchem assays: 1829 (Project Summary), 1814 (Primary HTS)]; format: functional
# [18] = luciferase reporter signal suppression in cells – H4 neuroglioma cells, luminescence, dose response (AID 1990); format: functional, cell-based
# [19] = alpha-synuclein stem-loop luciferase translation blockers – H4 neuroglioma cells, luminescence, confirmation (AID 1988); format: functional, cell-based
# Staphylococcus aureus = assay: Inhibitors of Bacterial Quorum Sensing Structure Activity Relationship (SAR) Analysis: Dose Response Assay. [Related pubchem assays: 700, 527 ]; format: functional, organism-based
# [20] = biological target: Melanin-concentrating hormone receptor 1 (Homo sapiens, UniProt Q99705); assay: Fluorescence-based counterscreen for antagonists of the G-protein coupled receptor 7 (GPR7): cell-based high throughput dose response assay to identify antagonists of the melanin-concentrating hormone receptor 1 (MCHR1).; format: functional
# Leucine aminopeptidase = biological target: T4, Leucine aminopeptidase (Plasmodium falciparum 3D7, UniProt Q8IL11); assay: P. falciparum M17LAP inhibitors, primary screen, biochemical, fluorogenic H-Leu-NHMec substrate, 1536-well (AID 1619); format: functional
# T4 sequence (Q8IL11 whole entry): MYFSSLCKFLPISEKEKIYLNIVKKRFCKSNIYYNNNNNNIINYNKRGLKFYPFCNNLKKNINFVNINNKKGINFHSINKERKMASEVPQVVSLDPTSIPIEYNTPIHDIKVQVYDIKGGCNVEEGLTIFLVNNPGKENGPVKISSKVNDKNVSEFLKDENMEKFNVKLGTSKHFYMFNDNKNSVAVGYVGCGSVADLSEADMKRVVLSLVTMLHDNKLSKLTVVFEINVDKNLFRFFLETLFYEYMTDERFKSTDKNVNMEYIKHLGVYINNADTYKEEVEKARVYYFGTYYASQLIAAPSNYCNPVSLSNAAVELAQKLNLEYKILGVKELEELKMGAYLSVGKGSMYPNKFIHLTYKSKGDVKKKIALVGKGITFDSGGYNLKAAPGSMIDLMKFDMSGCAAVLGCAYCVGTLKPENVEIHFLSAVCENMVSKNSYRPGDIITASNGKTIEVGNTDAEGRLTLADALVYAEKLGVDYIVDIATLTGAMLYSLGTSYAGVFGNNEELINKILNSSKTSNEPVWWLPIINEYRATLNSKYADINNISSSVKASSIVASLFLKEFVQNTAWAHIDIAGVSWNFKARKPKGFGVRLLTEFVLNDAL
# Aspartyl aminopeptidase = Aspartyl aminopeptidase (Plasmodium falciparum 3D7, UniProt Q8I2J3); assay: Counterscreen for inhibitors of M1 and M17 aminopeptidases: QFRET-based biochemical high throughput dose response assay for inhibitors of the Plasmodium falciparum M18 Aspartyl Aminopeptidase (PFM18AAP). [Related PubChem assays: 1619 (Screening assay (M17LAP inhibitors).), 1445 (Screening assay (M1AAP inhibitors).)]
# Procathepsin L = Procathepsin L (Homo sapiens, UniProt P07711); assay: CTSL1 protease inhibition – biochemical, QFRET, 1536-well, counter-screen for M1/M17 aminopeptidase inhibitor project, dose response (AID 2214)
# [21] = biological target: Ubiquitin carboxyl-terminal hydrolase BAP1 (Homo sapiens, UniProt Q92560); assay: inhibition of BAP1 ubiquitin hydrolase activity – biochemical, dose response (AID 714); format: functional
# [22] = biological target: Photoreceptor-specific nuclear receptor (Homo sapiens, UniProt Q9Y5X4); format: functional;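 note: potency for compounds that break the NR2E3 corepressor complex and count as activators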
# [23] = biological target: Peroxisome proliferator-activated receptor gamma/Nuclear receptor corepressor 2 (Homo sapiens, UniProt P37231+Q9Y618); format: functional
# cells [24] = assay: cells
# Major prion protein = Major prion protein (Homo sapiens, UniProt P04156); format: functional, cell-based
# Lytic switch protein BZLF1, sequence (P03206 whole entry): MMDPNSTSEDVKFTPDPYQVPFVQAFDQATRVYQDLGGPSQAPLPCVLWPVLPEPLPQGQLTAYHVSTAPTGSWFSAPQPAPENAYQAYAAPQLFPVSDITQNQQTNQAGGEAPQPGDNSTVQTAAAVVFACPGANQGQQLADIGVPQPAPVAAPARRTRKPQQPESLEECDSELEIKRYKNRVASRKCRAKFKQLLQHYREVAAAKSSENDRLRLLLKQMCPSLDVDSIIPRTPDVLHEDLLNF
# Aryl hydrocarbon receptor, sequence (P35869 whole entry): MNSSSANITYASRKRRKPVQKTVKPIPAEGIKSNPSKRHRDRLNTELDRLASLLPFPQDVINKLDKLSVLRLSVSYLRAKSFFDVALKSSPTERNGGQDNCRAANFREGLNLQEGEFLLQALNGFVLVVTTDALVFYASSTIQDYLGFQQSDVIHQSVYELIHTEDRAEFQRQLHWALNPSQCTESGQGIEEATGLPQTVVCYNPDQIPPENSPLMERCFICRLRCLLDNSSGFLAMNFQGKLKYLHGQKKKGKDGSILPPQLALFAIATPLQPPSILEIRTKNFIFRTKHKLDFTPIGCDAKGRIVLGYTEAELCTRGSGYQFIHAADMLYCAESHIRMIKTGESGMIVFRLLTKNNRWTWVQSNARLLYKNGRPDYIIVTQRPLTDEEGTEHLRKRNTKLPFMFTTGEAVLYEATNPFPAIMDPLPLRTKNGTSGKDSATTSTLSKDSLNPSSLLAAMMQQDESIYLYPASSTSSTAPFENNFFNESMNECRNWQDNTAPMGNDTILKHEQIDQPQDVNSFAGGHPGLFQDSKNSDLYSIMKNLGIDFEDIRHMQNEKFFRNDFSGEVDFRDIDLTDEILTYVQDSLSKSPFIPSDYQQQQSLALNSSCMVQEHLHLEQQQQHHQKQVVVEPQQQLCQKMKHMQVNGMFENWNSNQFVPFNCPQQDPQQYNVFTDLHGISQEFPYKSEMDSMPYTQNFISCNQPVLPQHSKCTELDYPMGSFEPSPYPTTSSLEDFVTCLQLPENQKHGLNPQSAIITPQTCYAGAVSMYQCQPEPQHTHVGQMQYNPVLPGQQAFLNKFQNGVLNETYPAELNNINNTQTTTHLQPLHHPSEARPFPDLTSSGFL
# Epstein-Barr nuclear antigen 1, sequence (P03211 whole entry): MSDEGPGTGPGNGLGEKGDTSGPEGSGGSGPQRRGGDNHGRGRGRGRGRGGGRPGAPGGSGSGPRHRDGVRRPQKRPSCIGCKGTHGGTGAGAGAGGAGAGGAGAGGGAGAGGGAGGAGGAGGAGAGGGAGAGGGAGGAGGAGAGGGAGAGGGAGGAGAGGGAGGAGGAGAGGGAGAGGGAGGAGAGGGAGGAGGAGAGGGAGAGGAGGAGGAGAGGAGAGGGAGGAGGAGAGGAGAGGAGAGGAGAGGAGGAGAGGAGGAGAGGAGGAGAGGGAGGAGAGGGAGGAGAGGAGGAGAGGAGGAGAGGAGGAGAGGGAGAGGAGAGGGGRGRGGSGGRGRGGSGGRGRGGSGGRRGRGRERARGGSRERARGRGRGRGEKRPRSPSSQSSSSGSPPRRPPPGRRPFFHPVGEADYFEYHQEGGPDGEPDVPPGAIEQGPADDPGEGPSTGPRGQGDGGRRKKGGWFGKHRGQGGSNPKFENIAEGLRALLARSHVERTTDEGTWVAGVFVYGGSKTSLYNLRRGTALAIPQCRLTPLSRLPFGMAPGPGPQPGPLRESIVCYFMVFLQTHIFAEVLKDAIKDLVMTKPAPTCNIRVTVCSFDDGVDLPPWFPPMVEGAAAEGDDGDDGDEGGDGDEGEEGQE
# T1 sequence (P08659 whole entry): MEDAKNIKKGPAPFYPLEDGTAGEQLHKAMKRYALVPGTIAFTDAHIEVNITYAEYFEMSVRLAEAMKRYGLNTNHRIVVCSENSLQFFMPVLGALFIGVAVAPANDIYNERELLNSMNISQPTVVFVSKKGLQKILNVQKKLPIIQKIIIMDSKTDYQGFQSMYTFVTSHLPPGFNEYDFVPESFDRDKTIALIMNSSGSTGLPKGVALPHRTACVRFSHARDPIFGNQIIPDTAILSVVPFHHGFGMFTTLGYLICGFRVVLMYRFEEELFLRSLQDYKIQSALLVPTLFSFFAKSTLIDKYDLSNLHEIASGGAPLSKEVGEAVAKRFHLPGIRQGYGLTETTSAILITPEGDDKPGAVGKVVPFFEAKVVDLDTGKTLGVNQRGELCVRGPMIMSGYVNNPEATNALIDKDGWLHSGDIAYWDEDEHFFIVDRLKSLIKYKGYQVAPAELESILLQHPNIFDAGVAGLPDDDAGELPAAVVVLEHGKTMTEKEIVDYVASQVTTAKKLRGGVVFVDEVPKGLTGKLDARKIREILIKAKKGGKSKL
# E3 ubiquitin-protein ligase Mdm2, sequence (Q00987 whole entry): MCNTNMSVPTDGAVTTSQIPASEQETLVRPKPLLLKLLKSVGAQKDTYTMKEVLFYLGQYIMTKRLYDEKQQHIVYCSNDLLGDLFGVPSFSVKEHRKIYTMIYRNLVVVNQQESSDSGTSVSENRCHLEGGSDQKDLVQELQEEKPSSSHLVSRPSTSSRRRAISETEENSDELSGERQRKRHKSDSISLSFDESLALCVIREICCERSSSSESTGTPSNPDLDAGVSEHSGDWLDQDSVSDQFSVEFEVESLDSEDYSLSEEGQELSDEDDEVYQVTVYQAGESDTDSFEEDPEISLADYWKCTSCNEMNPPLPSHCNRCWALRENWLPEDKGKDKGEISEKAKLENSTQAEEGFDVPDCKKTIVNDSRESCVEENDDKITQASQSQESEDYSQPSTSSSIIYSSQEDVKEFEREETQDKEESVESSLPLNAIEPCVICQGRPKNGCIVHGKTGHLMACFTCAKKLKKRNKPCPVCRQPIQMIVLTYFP
# Ubiquitin carboxyl-terminal hydrolase BAP1, sequence (Q92560 whole entry): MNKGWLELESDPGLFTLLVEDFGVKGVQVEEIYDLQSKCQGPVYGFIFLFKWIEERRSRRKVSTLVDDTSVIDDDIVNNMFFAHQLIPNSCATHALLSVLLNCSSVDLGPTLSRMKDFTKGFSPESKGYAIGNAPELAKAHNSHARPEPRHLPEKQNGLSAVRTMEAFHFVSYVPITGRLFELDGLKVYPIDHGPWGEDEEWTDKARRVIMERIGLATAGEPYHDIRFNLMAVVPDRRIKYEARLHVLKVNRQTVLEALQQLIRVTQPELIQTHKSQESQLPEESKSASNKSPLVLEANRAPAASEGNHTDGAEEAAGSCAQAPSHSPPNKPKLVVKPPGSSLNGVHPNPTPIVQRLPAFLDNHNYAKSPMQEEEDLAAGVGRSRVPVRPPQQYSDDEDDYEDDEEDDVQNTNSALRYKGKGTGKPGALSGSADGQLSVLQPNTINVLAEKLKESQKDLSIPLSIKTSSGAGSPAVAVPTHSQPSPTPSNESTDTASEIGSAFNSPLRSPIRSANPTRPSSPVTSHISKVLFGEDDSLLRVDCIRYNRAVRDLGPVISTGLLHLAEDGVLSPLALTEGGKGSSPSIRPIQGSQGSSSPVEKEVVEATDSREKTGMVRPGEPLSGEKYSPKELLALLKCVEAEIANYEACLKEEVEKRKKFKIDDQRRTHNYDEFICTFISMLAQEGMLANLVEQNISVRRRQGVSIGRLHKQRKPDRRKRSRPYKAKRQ
# Photoreceptor-specific nuclear receptor, sequence (Q9Y5X4 whole entry): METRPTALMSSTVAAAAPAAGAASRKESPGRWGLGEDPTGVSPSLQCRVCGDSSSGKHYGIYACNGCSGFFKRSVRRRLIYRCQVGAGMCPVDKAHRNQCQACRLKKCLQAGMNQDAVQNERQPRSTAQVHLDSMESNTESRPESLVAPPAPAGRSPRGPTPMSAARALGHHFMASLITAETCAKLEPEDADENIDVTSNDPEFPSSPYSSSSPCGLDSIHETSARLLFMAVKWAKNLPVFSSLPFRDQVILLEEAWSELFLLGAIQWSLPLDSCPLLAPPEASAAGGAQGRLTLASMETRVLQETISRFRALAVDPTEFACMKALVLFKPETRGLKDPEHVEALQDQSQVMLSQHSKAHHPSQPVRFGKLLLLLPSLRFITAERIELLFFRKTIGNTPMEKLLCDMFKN
# Estrogen receptor beta, sequence (Q92731 whole entry): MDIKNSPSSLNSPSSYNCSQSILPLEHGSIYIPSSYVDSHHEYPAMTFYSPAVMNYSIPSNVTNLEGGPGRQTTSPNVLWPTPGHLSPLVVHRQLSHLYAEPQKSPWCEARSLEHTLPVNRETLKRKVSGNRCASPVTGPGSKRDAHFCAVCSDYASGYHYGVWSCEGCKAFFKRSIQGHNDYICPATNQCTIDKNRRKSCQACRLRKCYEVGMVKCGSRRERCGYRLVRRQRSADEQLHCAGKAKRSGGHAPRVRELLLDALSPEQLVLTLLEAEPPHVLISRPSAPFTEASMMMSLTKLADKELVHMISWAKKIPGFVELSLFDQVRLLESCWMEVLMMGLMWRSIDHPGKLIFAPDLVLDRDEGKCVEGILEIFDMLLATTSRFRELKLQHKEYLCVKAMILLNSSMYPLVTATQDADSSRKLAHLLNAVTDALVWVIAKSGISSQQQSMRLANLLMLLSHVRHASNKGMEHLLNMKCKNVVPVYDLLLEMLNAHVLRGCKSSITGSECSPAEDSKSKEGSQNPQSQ
# Aspartyl aminopeptidase, sequence (Q8I2J3 whole entry): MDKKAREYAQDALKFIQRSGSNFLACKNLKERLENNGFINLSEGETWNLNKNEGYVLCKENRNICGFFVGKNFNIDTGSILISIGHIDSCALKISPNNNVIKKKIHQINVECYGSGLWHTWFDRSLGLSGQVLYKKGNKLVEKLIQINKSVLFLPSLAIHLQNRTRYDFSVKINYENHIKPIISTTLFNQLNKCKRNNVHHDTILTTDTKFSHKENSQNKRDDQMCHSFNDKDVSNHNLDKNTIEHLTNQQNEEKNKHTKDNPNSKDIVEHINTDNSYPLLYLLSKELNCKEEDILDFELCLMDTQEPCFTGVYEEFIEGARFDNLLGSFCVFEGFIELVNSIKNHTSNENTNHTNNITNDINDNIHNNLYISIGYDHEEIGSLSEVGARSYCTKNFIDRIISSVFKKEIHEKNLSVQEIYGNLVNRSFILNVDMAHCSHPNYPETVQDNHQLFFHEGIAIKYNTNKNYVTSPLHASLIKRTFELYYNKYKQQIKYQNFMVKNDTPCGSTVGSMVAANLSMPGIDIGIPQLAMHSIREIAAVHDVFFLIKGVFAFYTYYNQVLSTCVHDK
smiles,measurement,setting,value
O=C1NCC(c2ccccc2)C1C(=O)N/N=C\c1ccc(-c2ccc(Cl)c(Cl)c2)o1 (centres undefined),CC50,[1],> 40 µM (active)
same,IC50,[2],> 100 µM (active)
CN(C)c1ccc(N/C=C/C(=O)c2ccco2)cc1,EC50,[3],< 0.2 µM (active)
same,EC50,[4],0.891 µM (active)
same,IC50,Protein skinhead-1,76.5 µM (inactive)
same,EC50,[5],1.9 µM (active)
same,EC50,HT-1080,> 50 µM (not active)
COc1ccc(Cl)cc1C(=O)Nc1ccc(N(C)C(C)=O)cc1,EC50,[6],2.81 µM (active)
CCCCCC1(C)NC(=S)N(c2ccccc2)N1 (centres undefined),IC50,[7],> 50 µM (not active)
Fc1ccc(CSc2ncnc3c2oc2ccccc23)cc1,IC50,Estrogen receptor beta,> 50 µM (not active)
Cc1cc(C(=O)CSc2nc3ccccc3o2)c(C)n1CC1CCCO1 (centres undefined),EC50,H4,< 0.1 µM (active)
same,EC50,[8],0.323 µM (active)
same,EC50,[9],0.21 µM (active)
same,EC50,[10],0.231 µM (active)
Cc1cc(C)c[n+](CC(=O)c2ccc(NC(=O)c3ccccc3)cc2)c1,EC50,[11],> 50 µM (active)
O=C(Nc1ccc(F)cc1)c1ccccc1S(=O)(=O)c1ccccc1[N+](=O)[O-],EC50,[12],0.53 µM (not active)
COCC(=O)N1CCc2ccc(NC(=O)c3ccc(C(F)(F)F)cc3)cc2C1,EC50,[6],> 1.13 µM (active)
CCCCCC1CC(CC(=O)NC(=S)Nc2ccc([N+](=O)[O-])cc2)C(=O)O1 (centres undefined),IC50,cells [13],20.3 µM (active)
same,IC50,[2],> 100 µM (active)
COc1ccccc1CNC(=O)c1ccc2nc3[nH]c4ccccc4c3nc2c1,IC50,[14],> 111 µM (not active)
same,IC50,[15],14.4 µM (not active)
Cc1oc2cc3c(C(=O)N4CCCCC4)c(C)oc3cc2c1C(=O)N1CCCCC1,EC50,H4,> 120 µM (not active)
same,EC50,[8],> 12 µM (not active)
same,EC50,[9],0.598 µM (active)
same,EC50,[10],0.573 µM (active)
same,EC50,[16],12.2 µM (active)
same,EC50,[17],< 0.1 µM (active)
CCN(CC)S(=O)(=O)c1ccc(/C(O)=C(\C#N)c2nc3ccccc3n2C)cc1,EC50,[11],> 50 µM (active)
same,EC50,[18],> 120 µM (not active)
same,EC50,[19],> 120 µM (not active)
Cc1ccc(Cl)c(Nc2ccccc2C(=O)O)c1Cl [MECLOFENAMIC ACID],IC50,Staphylococcus aureus,0.877 µM (active)
Cc1cc(C)c(S(=O)(=O)c2ccccc2)c(OC(=O)c2cc(F)c(F)cc2Cl)n1,EC50,[12],186 µM (not active)
Cc1cc(=O)oc2cc(OC(=O)c3ccccc3)ccc12,IC50,[20],> 43.8 µM (not active)
CC(C)c1ccc(NC(=O)C2CCCCC2C(=O)O)cc1 (centres undefined),IC50,Leucine aminopeptidase,3.51 µM (active)
same,IC50,Aspartyl aminopeptidase,> 73.5 µM (not active)
same,IC50,Procathepsin L,> 59.6 µM (not active)
O=C(CCCCCNc1nc(S)nc2ccccc12)NCCc1ccc(Cl)cc1,IC50,[14],> 111 µM (not active)
same,IC50,[15],13.4 µM (not active)
O=S(=O)(c1cccc(S(=O)(=O)N2CCC(n3nnc4ccccc43)CC2)c1)N1CCCCC1,IC50,[21],18.3 µM (active)
Brc1cc(Br)c2ncnc(N3CCCCC3)c2c1,IC50,[22],1.42 µM (active)
same,IC50,[23],2.36 µM (active)
same,IC50,cells [24],> 138 µM (inactive)
same,IC50,Major prion protein,1.38 µM (active)
COc1ccc(NC(=O)c2c(NC(=O)CNCc3ccco3)sc3c2CCC3)c(OC)c1,IC50,[21],35.8 µM (not active)
